Drawing on patent US20160212997A1, “AGRICULTURAL CHEMICALS” (REDAG CROP PROTECTION LTD, priority 2013, published 2016), this text covers pest or weed control for three molecules.

Experiment [1] relates to caterpillars, a mixture of Mamestra brassicae and Lacanobia oleracea. Description: Potter tower spray on caterpillars, knockdown and mortality. In kind it is in vivo. The note with it: read-out: Average of % corrected affected; for pest or weed control at 0.00625 % strength: 0.00625 % w/v; for pest or weed control at 0.0125 % strength: 0.0125 % w/v; for pest or weed control at 0.025 % strength: 0.025 % w/v; for pest or weed control at 0.05 % strength: 0.05 % w/v; for pest or weed control at 0.1 % strength: 0.1 % w/v. From the text:
(§1) Myzus persicae, Cabbage moth, Mamestra brassicae, diamond back moths, Plutella xylostella, red spider mites, Tetranychus urticae, whitefly, Trialeurodes vaporariorum, were obtained from specified laboratory cultures. Mixed sex and age aphids and mites, moth larvae and whitefly scale infested leaves were used in the experiments. Environmental conditions were closely monitored and recorded and were within the optimal range of the target species.
(§2) The compounds were screened at a range of five concentrations, diluted in DMSO. Some of the compounds were screened against aphids, whitefly and red spider mites and other compounds were screened against cabbage moth, and diamond black moths. A carrier only and an untreated control will also be conducted. Treatments were applied directly onto the insects within Petri dishes, using a potter tower.
(§3) Twenty mites and ten aphids, scales and moth larvae were placed within a Petri dish, lined with a suitable leaf disc on a damp cotton wool pad. Scales were already on leaves. The Petri dishes were then sprayed using a potter tower. The number of knocked down and anthropods were assessed at 24 and 48 hours post treatment. Five replicates were be performed for each treatment, for each species.
(§4) For Tables 2, 4, 5 and 6, the compounds were diluted in DMSO containing 1% v/v Tween 20™. For Tables 2, 4, 5 and 6, the caterpillars were a mixture of Mamestra brassicae and Lacanobia oleracea.

Experiment [2] relates to aphids, Myzus persicae. Kind of experiment: Potter tower spray on aphids, knockdown and mortality. The note with it: Myzus persicae, read-out: Average of % corrected affected; for pest or weed control at 0.00625 % strength: 0.00625 % w/v; for pest or weed control at 0.0125 % strength: 0.0125 % w/v; for pest or weed control at 0.025 % strength: 0.025 % w/v; for pest or weed control at 0.05 % strength: 0.05 % w/v; for pest or weed control at 0.1 % strength: 0.1 % w/v. Format: in vivo.
Excerpt: The compounds were screened for insecticidal efficacy against aphids, Myzus persicae, Cabbage moth, Mamestra brassicae, diamond black moths, Plutella xylostella, red spider mites, Tetranychus urticae, whitefly, Trialeurodes vaporariorum, in terms of knockdown and mortality.
as §1, §2, §3, §4

[3] abbreviates: 24 h, Caterpillars, 24 hours post application.
[4] abbreviates: 48 h, Caterpillars, 48 hours post application.
The mark [5] stands for this setting: 24 h, Aphids, 24 hours post application.
Where [6] appears, read: 48 h, Aphids, 48 hours post application.

The structures appear in SMILES notation. Where two headings read alike, the source gives them in different places.

Consider `Cc1cc(C2=NCC(c3cc(Cl)cc(Cl)c3)(C(F)(F)F)O2)ccc1SCC(=O)NCC(F)(F)F` (stereo not drawn) [Compound 18, 2-[4-[5-(3,5-dichlorophenyl)-5-(trifluoromethyl)-4H-oxazol-2-yl]-2-methyl-phenyl]sulfanyl-N-(2,2,2-trifluoroethyl)acetamide], for which the pest or weed control at 0.000125 % strength in experiment [1] (24 h, Caterpillars, 0.000125 % w/v, 24 hours post application) is 1 to 19%; in experiment [1] (48 h, Caterpillars, 0.000125 % w/v, 48 hours post application), 1 to 19%; in experiment [2] (24 h, Aphids, 0.000125 % w/v, 24 hours post application) it was 1 to 19%; in experiment [2] (48 h, Aphids, 0.000125 % w/v, 48 hours post application), 1 to 19%. The pest or weed control at 0.00025 % strength in experiment [1] (24 h, Caterpillars, 0.00025 % w/v, 24 hours post application) is 0%; in experiment [1] (48 h, Caterpillars, 0.00025 % w/v, 48 hours post application), 1 to 19%; in experiment [2] (24 h, Aphids, 0.00025 % w/v, 24 hours post application), 1 to 19%; in experiment [2] (48 h, Aphids, 0.00025 % w/v, 48 hours post application) it was 1 to 19%. The pest or weed control at 0.0005 % strength in experiment [1] (24 h, Caterpillars, 0.0005 % w/v, 24 hours post application) lay within 1 to 19%; in experiment [1] (48 h, Caterpillars, 0.0005 % w/v, 48 hours post application), 1 to 19%; in experiment [2] (24 h, Aphids, 0.0005 % w/v, 24 hours post application), 1 to 19%; in experiment [2] (48 h, Aphids, 0.0005 % w/v, 48 hours post application), 1 to 19%. Also, the pest or weed control at 0.001 % strength was 1 to 19% in experiment [1] (24 h, Caterpillars, 0.001 % w/v, 24 hours post application); 1 to 19% in experiment [1] (48 h, Caterpillars, 0.001 % w/v, 48 hours post application); 1 to 19% in experiment [2] (24 h, Aphids, 0.001 % w/v, 24 hours post application); 1 to 19% in experiment [2] (48 h, Aphids, 0.001 % w/v, 48 hours post application). In addition, the pest or weed control at 0.002 % strength in experiment [1] (24 h, Caterpillars, 0.002 % w/v, 24 hours post application) was 1 to 19%; in experiment [1] (48 h, Caterpillars, 0.002 % w/v, 48 hours post application), 0%; in experiment [2] (24 h, Aphids, 0.002 % w/v, 24 hours post application), 1 to 19%; in experiment [2] (48 h, Aphids, 0.002 % w/v, 48 hours post application) it was 1 to 19%.

In the case of `N#CCN(Cc1ccc(Cl)nc1)C1=CC(=O)OC1` [Compound 7, 2-[(6-Chloro-3-pyridyl)methyl-(5-oxo-2H-furan-3-yl)amino]acetonitrile], in experiment [1] (setting [3]), the pest or weed control at 0.00625 % strength lay within 1 to 19%, the pest or weed control at 0.0125 % strength lay within 1 to 19%, the pest or weed control at 0.025 % strength was in the range of 1 to 19% and the pest or weed control at 0.05 % strength stood at 0%. In addition, in experiment [1] (setting [3]), the pest or weed control at 0.1 % strength lay in the range of 1 to 19%. Moreover, in experiment [1] (setting [4]), the pest or weed control at 0.00625 % strength lay within 1 to 19%, the pest or weed control at 0.0125 % strength worked out at 0%, the pest or weed control at 0.025 % strength lay in the range of 1 to 19% and the pest or weed control at 0.05 % strength worked out at 0%. In experiment [1] (setting [4]), the pest or weed control at 0.1 % strength was 1 to 19%. Moreover, in experiment [2] (setting [5]), the pest or weed control at 0.00625 % strength was 1 to 19%, the pest or weed control at 0.0125 % strength fell in the range of 20 to 39%, the pest or weed control at 0.025 % strength was in the range of 20 to 39% and the pest or weed control at 0.05 % strength was 40 to 59%. The pest or weed control at 0.1 % strength in experiment [2] (setting [5]) was 1 to 19%. Further, in experiment [2] (setting [6]), the pest or weed control at 0.00625 % strength lay within 40 to 59%, the pest or weed control at 0.0125 % strength lay within 40 to 59%, the pest or weed control at 0.025 % strength was 40 to 59% and the pest or weed control at 0.05 % strength lay in the range of 40 to 59%. Besides, in experiment [2] (setting [6]), the pest or weed control at 0.1 % strength was in the range of 1 to 19%.

Take `Cc1cc(C2=NOC(c3cc(Cl)cc(Cl)c3)(C(F)(F)F)C2)ccc1SCC(=O)NCC(F)(F)F` (stereo not drawn) [Compound 15, 2-[4-[5-(3,5-dichlorophenyl)-5-(trifluoromethyl)-4H-isoxazol-3-yl]-2-methyl-phenyl]sulfanyl-N-(2,2,2-trifluoroethyl)acetamide, reference compound]: in experiment [1] (24 h), the pest or weed control at 0.000125 % strength fell in the range of 1 to 19%, the pest or weed control at 0.00025 % strength is 1 to 19%, the pest or weed control at 0.0005 % strength was 1 to 19% and the pest or weed control at 0.001 % strength lay within 1 to 19%. Besides, the pest or weed control at 0.002 % strength in experiment [1] (24 h) lay in the range of 1 to 19%. Also, in experiment [1] (48 h), the pest or weed control at 0.000125 % strength was 0%, the pest or weed control at 0.00025 % strength lay in the range of 1 to 19%, the pest or weed control at 0.0005 % strength was in the range of 1 to 19% and the pest or weed control at 0.001 % strength is 1 to 19%. In addition, in experiment [1] (48 h), the pest or weed control at 0.002 % strength lay within 1 to 19%. Further, in experiment [2] (24 h), the pest or weed control at 0.000125 % strength fell in the range of 1 to 19%, the pest or weed control at 0.00025 % strength lay in the range of 1 to 19%, the pest or weed control at 0.0005 % strength was in the range of 1 to 19% and the pest or weed control at 0.001 % strength was 1 to 19%. For the same molecule, the pest or weed control at 0.002 % strength in experiment [2] (24 h) came to 0%. For the same molecule, in experiment [2] (48 h), the pest or weed control at 0.000125 % strength was 1 to 19%, the pest or weed control at 0.00025 % strength was in the range of 1 to 19%, the pest or weed control at 0.0005 % strength was 1 to 19% and the pest or weed control at 0.001 % strength lay in the range of 20 to 39%. In experiment [2] (48 h), the pest or weed control at 0.002 % strength was in the range of 20 to 39%.
